Among the data in patent US20170298052A1, “SUBSTITUTED OXOPYRIDINE DERIVATIVES” (BAYER PHARMA AKTIENGESELLSCHAFT, priority 2014, published 2017) are IC50 values, retold here.

One assay concerns the target T1, human factor XIa (Homo sapiens, UniProt P03951).
T1 construct: purchased Kordia
The experiment in a line: Measurement of FXIa inhibition (fluorogenic peptide substrate, AMC cleavage). The note with it: factor XIa from Kordia 0.45 nM; substrate Boc-Glu(OBzl)-Ala-Arg-AMC; 30 min at 22° C. In kind it is biochemical. The protocol:
The factor XIa inhibition of the substances according to the invention is determined using a biochemical test system which utilizes the reaction of a peptidic factor XIa substrate to determine the enzymatic activity of human factor XIa. Here, factor XIa cleaves from the peptic factor XIa substrate the C-terminal aminomethylcoumarin (AMC), the fluorescence of which is measured. The determinations are carried out in microtitre plates.
1 μl of the diluted substance solutions is placed into each of the wells of white microtitre plates from Greiner (384 wells). […] After 15 min of incubation, the enzyme reaction is started by addition of 20 μl of the factor XIa substrate Boc-Glu(OBzl)-Ala-Arg-AMC dissolved in assay buffer (10 μM in assay buffer) from Bachem, the mixture is incubated at room temperature (22° C.) for 30 min and fluorescence is then measured (excitation: 360 nm, emission: 460 nm). The measured emissions of the test batches with test substance are compared to those of control batches without test substance (only dimethyl sulphoxide instead of test substance in dimethyl sulphoxide), and IC50 values are calculated from the concentration/activity relationships.

Another assay deals with human plasma kallikrein (Homo sapiens, UniProt P03952). The experiment in a line: Determination of the plasma kallikrein activity (fluorogenic peptide substrate, AMC cleavage). It counts as biochemical. The note with it: plasma kallikrein from Kordia 0.6 nM; substrate H-Pro-Phe-Arg-AMC; 30 min at 22° C.; read-out: IC50 [nM] (Table B, plasma kallikrein inhibition). The protocol: To determine the plasma kallikrein inhibition of the substances according to the invention, a biochemical test system is used which utilizes the reaction of a peptidic plasma kallikrein substrate to determine the enzymatic activity of human plasma kallikrein. Here, plasma kallikrein cleaves from the peptic plasma kallikrein substrate the C-terminal aminomethylcoumarin (AMC), the fluorescence of which is measured. The determinations are carried out in microtitre plates.
Test substances are dissolved in dimethyl sulphoxide and serially diluted in dimethyl sulphoxide (3000 μM to 0.0078 μM; resulting final concentrations in the test: 50 μM to 0.00013 μM). 1 μl of the diluted substance solutions is placed into each of the wells of white microtitre plates from Greiner (384 wells). 20 μl of assay buffer (50 mM Tris/HCl pH 7.4; 100 mM sodium chloride solution; 5 mM of calcium chloride solution; 0.1% of bovine serum albumin) and 20 μl of plasma kallikrein from Kordia (0.6 nM in assay buffer) are then added successively. After 15 min of incubation, the enzyme reaction is started by addition of 20 μl of the substrate H-Pro-Phe-Arg-AMC dissolved in assay buffer (10 μM in assay buffer) from Bachem, the mixture is incubated at room temperature (22° C.) for 30 min and fluorescence is then measured (excitation: 360 nm, emission: 460 nm). The measured emissions of the test batches with test substance are compared to those of control batches without test substance (only dimethyl sulphoxide instead of test substance in dimethyl sulphoxide), and IC50 values are calculated from the concentration/activity relationships.

human plasma kallikrein, sequence (P03952 391-638 limits assumed): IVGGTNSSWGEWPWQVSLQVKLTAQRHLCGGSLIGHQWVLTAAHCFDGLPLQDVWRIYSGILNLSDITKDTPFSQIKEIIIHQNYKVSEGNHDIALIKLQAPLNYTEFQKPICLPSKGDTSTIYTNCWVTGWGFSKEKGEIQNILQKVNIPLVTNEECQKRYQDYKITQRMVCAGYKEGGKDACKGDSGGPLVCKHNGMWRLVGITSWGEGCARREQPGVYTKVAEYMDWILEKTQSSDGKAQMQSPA
human plasma kallikrein, sequence (P03952 20-390 partner limits assumed): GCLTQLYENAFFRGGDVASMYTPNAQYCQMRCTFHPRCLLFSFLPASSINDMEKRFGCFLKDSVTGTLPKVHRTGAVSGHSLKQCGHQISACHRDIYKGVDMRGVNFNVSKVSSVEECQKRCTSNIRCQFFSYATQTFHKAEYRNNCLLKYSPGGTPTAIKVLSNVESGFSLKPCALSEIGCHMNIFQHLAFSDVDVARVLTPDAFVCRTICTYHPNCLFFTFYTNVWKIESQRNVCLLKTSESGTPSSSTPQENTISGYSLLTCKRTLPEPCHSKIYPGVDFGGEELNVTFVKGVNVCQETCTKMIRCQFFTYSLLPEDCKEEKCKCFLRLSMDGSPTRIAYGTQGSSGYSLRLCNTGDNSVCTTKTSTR
T1 sequence (P03951 388-625 limits assumed): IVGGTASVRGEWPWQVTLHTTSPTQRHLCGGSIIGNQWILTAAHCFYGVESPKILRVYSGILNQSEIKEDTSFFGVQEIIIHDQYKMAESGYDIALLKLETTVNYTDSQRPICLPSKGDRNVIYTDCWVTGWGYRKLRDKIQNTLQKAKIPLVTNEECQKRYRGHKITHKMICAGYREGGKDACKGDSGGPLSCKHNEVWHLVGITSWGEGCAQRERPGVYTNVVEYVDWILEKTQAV
T1 sequence (P03951 19-387 partner limits assumed): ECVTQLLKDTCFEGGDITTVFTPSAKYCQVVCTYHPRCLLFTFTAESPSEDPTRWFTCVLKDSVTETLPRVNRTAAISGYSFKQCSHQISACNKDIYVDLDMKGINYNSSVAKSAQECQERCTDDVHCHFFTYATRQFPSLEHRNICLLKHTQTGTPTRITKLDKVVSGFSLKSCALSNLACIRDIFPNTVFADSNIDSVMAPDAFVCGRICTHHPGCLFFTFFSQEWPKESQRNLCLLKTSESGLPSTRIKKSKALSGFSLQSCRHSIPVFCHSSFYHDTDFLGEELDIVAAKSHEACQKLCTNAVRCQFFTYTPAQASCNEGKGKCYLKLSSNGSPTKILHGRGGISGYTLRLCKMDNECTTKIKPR

Usually IC50 stands for the concentration that gives 50% inhibition. With `COc1cn(C(Cc2coc(C)n2)C(=O)Nc2ccc(C(N)=O)c(F)c2)c(=O)cc1-c1cc(Cl)ccc1C#N` (racemic) [Example 41, 4-({2-[4-(5-Chloro-2-cyanophenyl)-5-methoxy-2-oxopyridin-1(2H)-yl]-3-(2-methyl-1,3-oxazol-4-yl)-propanoyl}amino)-2-fluorobenzamide], the IC50 came out at 28 nM at human factor XIa and 21 nM on human plasma kallikrein.

Consider `COc1cn(C(CC2=NOCC2)C(=O)Nc2ccc(C(N)=O)c(F)c2)c(=O)cc1-c1cc(Cl)ccc1C#N` (racemic) [Example 42, 4-({2-[4-(5-Chloro-2-cyanophenyl)-5-methoxy-2-oxopyridin-1(2H)-yl]-3-(4,5-dihydro-1,2-oxazol-3-yl)propanoyl}amino)-2-fluorobenzamide], for which the values for the IC50 on human factor XIa and at human plasma kallikrein were 51 nM and 38 nM, respectively.

In the case of `COc1cn(C(Cc2ccn(C)n2)C(=O)Nc2ccc(C(N)=O)c(F)c2)c(=O)cc1-c1cc(C)ccc1C#N` (racemic) [Example 43, 4-({2-[4-(2-Cyano-5-methylphenyl)-5-methoxy-2-oxopyridin-1(2H)-yl]-3-(1-methyl-1H-pyrazol-3-yl)propanoyl}amino)-2-fluorobenzamide], the IC50 came out at 12 nM on human factor XIa and 8.3 nM on human plasma kallikrein.

For `CNC(=O)c1ccc(NC(=O)C(Cc2ccn(C)n2)n2cc(OC)c(-c3cc(C)ccc3C#N)cc2=O)cc1F` (racemic) [Example 44, 4-({2-[4-(2-Cyano-5-methylphenyl)-5-methoxy-2-oxopyridin-1(2H)-yl]-3-(1-methyl-1H-pyrazol-3-yl)propanoyl}amino)-2-fluoro-N-methylbenzamide], the values for the 50% inhibitory concentration (IC50) on human factor XIa and at human plasma kallikrein were 19 nM and 12 nM, respectively.

On to `COc1cc(NC(=O)C(Cc2ccn(C)n2)n2cc(OC)c(-c3cc(Cl)ccc3C#N)cc2=O)ccc1C(N)=O` (racemic) [Example 46, 4-({2-[4-(5-Chloro-2-cyanophenyl)-5-methoxy-2-oxopyridin-1(2H)-yl]-3-(1-methyl-1H-pyrazol-3-yl)propanoyl}amino)-2-methoxybenzamide], for which the figures for the IC50 at human factor XIa and on human plasma kallikrein were 8.9 nM and 2.4 nM, respectively.

Regarding `CNC(=O)c1ccc(NC(=O)C(Cc2coc(C)n2)n2cc(OC)c(-c3cc(Cl)ccc3C#N)cc2=O)cc1F` (racemic) [Example 47, 4-({2-[4-(5-Chloro-2-cyanophenyl)-5-methoxy-2-oxopyridin-1(2H)-yl]-3-(2-methyl-1,3-oxazol-4-yl)propanoyl}amino)-2-fluoro-N-methylbenzamide], the IC50 was 32 nM at human factor XIa and 24 nM at human plasma kallikrein.

Consider `COCCC(C(=O)Nc1ccc(C(N)=O)c(OC)c1)n1cc(OC)c(-c2cc(Cl)ccc2C#N)cc1=O` (racemic) [Example 48, 4-({2-[4-(5-Chloro-2-cyanophenyl)-5-methoxy-2-oxopyridin-1(2H)-yl]-4-methoxybutanoyl}amino)-2-methoxybenzamide], for which the figures for the IC50 on human factor XIa and at human plasma kallikrein were 15 nM and 7.7 nM, respectively.

Take `COCCC(C(=O)Nc1ccc(C(N)=O)c(F)c1)n1cc(OC)c(-c2cc(C)ccc2C#N)cc1=O` (racemic) [Example 49, 4-({2-[4-(2-Cyano-5-methylphenyl)-5-methoxy-2-oxopyridin-1(2H)-yl]-4-methoxybutanoyl}amino)-2-fluorobenzamide]: the IC50 on human factor XIa amounted to 28 nM; at human plasma kallikrein, 27 nM.

Regarding `COCCC(C(=O)Nc1ccc(C(N)=O)c(F)c1)n1cc(OC)c(-c2cc(C)ccc2C#N)cc1=O` (single isomer, unassigned) [Example 24, 4-({2-[4-(2-Cyano-5-methylphenyl)-5-methoxy-2-oxopyridin-1(2H)-yl]-4-methoxybutanoyl}amino)-2-fluorobenzamide], the IC50 was 27 nM on human factor XIa and 25 nM on human plasma kallikrein.

For the compound `COc1cn(C(Cc2ccccn2)C(=O)Nc2ccc(C(N)=O)c(F)c2)c(=O)cc1-c1cc(Cl)ccc1C#N` (single isomer, unassigned) [Example 28, 4-({2-[4-(5-Chloro-2-cyanophenyl)-5-methoxy-2-oxopyridin-1(2H)-yl]-3-(pyridin-2-yl)propanoyl}amino)-2-fluorobenzamide], the values for the IC50 on human factor XIa and on human plasma kallikrein were 6.6 nM and 4.8 nM, respectively.

For `COc1cn(C(Cc2ccncc2)C(=O)Nc2ccc(C(N)=O)c(F)c2)c(=O)cc1-c1cc(Cl)ccc1C#N` (single isomer, unassigned) [Example 29, 4-({2-[4-(5-Chloro-2-cyanophenyl)-5-methoxy-2-oxopyridin-1(2H)-yl]-3-(pyridin-4-yl)propanoyl}amino)-2-fluorobenzamide], the figures for the IC50 against human factor XIa and on human plasma kallikrein were 5.1 nM and 2.7 nM, respectively.

With `COc1cn(C(Cc2cnco2)C(=O)Nc2ccc(C(N)=O)c(F)c2)c(=O)cc1-c1cc(Cl)ccc1C#N` (single isomer, unassigned) [Example 45, 4-({2-[4-(5-Chloro-2-cyanophenyl)-5-methoxy-2-oxopyridin-1(2H)-yl]-3-(1,3-oxazol-5-yl)propanoyl}amino)-2-fluorobenzamide], the IC50 on human factor XIa amounted to 6.4 nM; at human plasma kallikrein, 4 nM.

For `N#Cc1ccc(Cl)cc1-c1cc(=O)n(C(Cc2cnco2)C(=O)Nc2ccc(C(N)=O)c(F)c2)cc1OC(F)F` (stereo not shown) [Example 1], the IC50 at human factor XIa was 240 nM; on human plasma kallikrein, 490 nM.

With `N#Cc1ccc(Cl)cc1-c1cc(=O)n(C(Cc2cocn2)C(=O)Nc2ccc(C(N)=O)c(F)c2)cc1Cl` (stereo not shown) [Example 2], the values for the IC50 against human factor XIa and on human plasma kallikrein were 190 nM and 260 nM, respectively.

`COc1cn(C(Cc2cocn2)C(=O)Nc2ccc(C(N)=O)c(F)c2)c(=O)cc1-c1cc(Cl)ccc1C#N` (stereo not shown) [Example 3]: the IC50 against human factor XIa came out at 43 nM; on human plasma kallikrein it was 33 nM.

In the case of `N#Cc1ccc(Cl)cc1-c1cc(=O)n(C(Cc2cnco2)C(=O)Nc2ccc(C(N)=O)c(F)c2)cc1Cl` (stereo not shown) [Example 4], the IC50 on human factor XIa was 52 nM; on human plasma kallikrein, 140 nM.

Consider `COc1cn(C(Cc2cnco2)C(=O)Nc2ccc(C(N)=O)c(F)c2)c(=O)cc1-c1cc(Cl)ccc1C#N` (stereo not shown) [Example 5], for which the IC50 at human factor XIa and at human plasma kallikrein was 14 nM each time.

For the compound `COCCC(C(=O)Nc1ccc(C(N)=O)c(F)c1)n1cc(Cl)c(-c2cc(Cl)ccc2C#N)cc1=O` (stereo not shown) [Example 6], the IC50 against human factor XIa was 47 nM; on human plasma kallikrein, 110 nM.

As to `CCC(C(=O)Nc1ccc(C(N)=O)c(F)c1)n1cc(OC)c(-c2cc(Cl)ccc2C#N)cc1=O` (stereo not shown) [Example 7], the figures for the IC50 against human factor XIa and on human plasma kallikrein were 25 nM and 36 nM, respectively.

Regarding `CCC(C(=O)Nc1ccc(C(=O)NC)c(F)c1)n1cc(OC)c(-c2cc(Cl)ccc2C#N)cc1=O` (stereo not shown) [Example 8], the values for the IC50 on human factor XIa and at human plasma kallikrein were 12 nM and 30 nM, respectively.

Take `COc1cn(C(Cc2cccnc2)C(=O)Nc2ccc(C(N)=O)c(F)c2)c(=O)cc1-c1cc(Cl)ccc1C#N` (stereo not shown) [Example 9]: the IC50 against human factor XIa is 11 nM; at human plasma kallikrein, 6 nM.

As to `COc1cn(C(Cc2ccncc2)C(=O)Nc2ccc(C(N)=O)c(F)c2)c(=O)cc1-c1cc(Cl)ccc1C#N` (stereo not shown) [Example 10], the IC50 against human factor XIa was 9 nM; on human plasma kallikrein, 7 nM.

Consider `N#Cc1ccc(Cl)cc1-c1cc(=O)n(C(Cc2ccccn2)C(=O)Nc2ccc(C(N)=O)c(F)c2)cc1OC(F)F` (stereo not shown) [Example 11], for which the figures for the IC50 on human factor XIa and at human plasma kallikrein were 160 nM and 490 nM, respectively.

Turning to `COc1cn(C(Cc2ccccn2)C(=O)Nc2ccc(C(N)=O)c(F)c2)c(=O)cc1-c1cc(Cl)ccc1C#N` (stereo not shown) [Example 12], the IC50 is 11 nM against human factor XIa and 10 nM on human plasma kallikrein.

As to `N#Cc1ccc(Cl)cc1-c1cc(=O)n(C(Cc2ccccn2)C(=O)Nc2ccc(C(N)=O)c(F)c2)cc1Cl` (stereo not shown) [Example 13], the IC50 turned out to be 63 nM on human factor XIa and 110 nM at human plasma kallikrein.

Consider `N#Cc1ccc(Cl)cc1-c1cc(=O)n(C(C[C@@H]2CCCCO2)C(=O)Nc2ccc(C(N)=O)c(F)c2)cc1Cl` (stereo partly shown) [Example 14], for which the IC50 against human factor XIa worked out at 25 nM; at human plasma kallikrein, 210 nM.

For the compound `CNC(=O)c1ccc(NC(=O)C(C[C@@H]2CCCCO2)n2cc(Cl)c(-c3cc(Cl)ccc3C#N)cc2=O)cc1F` (stereo partly shown) [Example 15], the IC50 on human factor XIa was 28 nM; at human plasma kallikrein, 260 nM.

As to `COc1cn(C(Cc2cc(C)no2)C(=O)Nc2ccc(C(N)=O)c(F)c2)c(=O)cc1-c1cc(Cl)ccc1F` (stereo not shown) [Example 16], the IC50 on human factor XIa worked out at 200 nM; on human plasma kallikrein, 350 nM.

Regarding `COc1cn(C(Cc2ccccn2)C(=O)Nc2ccc(C(N)=O)c(F)c2)c(=O)cc1-c1cc(Cl)ccc1F` (stereo not shown) [Example 17], the IC50 was determined as 290 nM at human factor XIa and 230 nM on human plasma kallikrein.
